Test results from patent publication US7897358B2, “Canine transient receptor potential V2 (cTRPV2) and methods of screening for TRPV2 channel modulators” (Janssen Pharmaceutica N.V., priority 2007, dated 2011).

Key:
human TRPV2 = molecular target: T1, human TRPV2 (Homo sapiens, UniProt Q9Y5S1); details: cited from earlier work
T1 sequence (Q9Y5S1 1-764): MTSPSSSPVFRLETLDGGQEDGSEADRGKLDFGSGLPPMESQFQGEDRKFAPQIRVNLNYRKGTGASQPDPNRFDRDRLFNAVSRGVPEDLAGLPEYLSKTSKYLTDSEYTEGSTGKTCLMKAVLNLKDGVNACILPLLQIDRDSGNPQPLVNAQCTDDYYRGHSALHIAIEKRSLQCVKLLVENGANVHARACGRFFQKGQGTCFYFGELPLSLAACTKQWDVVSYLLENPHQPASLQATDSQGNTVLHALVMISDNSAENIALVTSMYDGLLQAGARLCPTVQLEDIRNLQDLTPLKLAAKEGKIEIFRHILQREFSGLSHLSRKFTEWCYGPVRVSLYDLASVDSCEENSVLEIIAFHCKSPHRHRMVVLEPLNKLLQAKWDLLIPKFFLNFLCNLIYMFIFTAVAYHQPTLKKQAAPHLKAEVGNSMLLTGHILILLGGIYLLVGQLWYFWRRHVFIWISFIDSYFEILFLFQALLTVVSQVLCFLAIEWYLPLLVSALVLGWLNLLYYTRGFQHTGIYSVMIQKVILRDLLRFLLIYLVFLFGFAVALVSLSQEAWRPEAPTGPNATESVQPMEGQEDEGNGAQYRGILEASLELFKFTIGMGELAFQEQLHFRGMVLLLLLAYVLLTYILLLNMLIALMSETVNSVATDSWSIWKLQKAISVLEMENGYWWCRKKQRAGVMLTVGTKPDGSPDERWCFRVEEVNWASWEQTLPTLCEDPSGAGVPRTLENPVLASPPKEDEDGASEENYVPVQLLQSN

mouse TRPV2 = molecular target: T2, mouse TRPV2 (Mus musculus, UniProt Q9WTR1); details: cited from earlier work
T2 sequence (Q9WTR1 1-756): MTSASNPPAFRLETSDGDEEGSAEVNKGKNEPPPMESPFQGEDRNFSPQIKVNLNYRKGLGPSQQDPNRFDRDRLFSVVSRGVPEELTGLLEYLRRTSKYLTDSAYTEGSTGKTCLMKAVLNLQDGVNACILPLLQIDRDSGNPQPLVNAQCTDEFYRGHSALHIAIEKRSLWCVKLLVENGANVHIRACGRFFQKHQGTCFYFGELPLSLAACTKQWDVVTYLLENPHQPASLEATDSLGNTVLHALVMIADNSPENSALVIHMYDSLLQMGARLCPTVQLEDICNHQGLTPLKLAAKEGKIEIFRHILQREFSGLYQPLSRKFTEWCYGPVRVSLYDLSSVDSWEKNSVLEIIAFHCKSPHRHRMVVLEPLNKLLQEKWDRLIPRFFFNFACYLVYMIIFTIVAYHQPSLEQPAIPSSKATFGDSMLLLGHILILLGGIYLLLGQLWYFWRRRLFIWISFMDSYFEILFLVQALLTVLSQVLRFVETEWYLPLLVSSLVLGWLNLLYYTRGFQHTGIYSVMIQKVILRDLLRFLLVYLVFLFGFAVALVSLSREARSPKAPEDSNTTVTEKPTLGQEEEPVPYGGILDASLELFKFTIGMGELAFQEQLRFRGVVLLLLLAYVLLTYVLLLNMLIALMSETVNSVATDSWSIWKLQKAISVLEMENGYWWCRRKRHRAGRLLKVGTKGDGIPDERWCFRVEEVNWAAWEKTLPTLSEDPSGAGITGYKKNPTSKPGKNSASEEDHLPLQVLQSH

rat TRPV2 = molecular target: T3, rat TRPV2 (Rattus norvegicus, UniProt Q9WUD2); details: cited from earlier work
T3 sequence (Q9WUD2 1-761): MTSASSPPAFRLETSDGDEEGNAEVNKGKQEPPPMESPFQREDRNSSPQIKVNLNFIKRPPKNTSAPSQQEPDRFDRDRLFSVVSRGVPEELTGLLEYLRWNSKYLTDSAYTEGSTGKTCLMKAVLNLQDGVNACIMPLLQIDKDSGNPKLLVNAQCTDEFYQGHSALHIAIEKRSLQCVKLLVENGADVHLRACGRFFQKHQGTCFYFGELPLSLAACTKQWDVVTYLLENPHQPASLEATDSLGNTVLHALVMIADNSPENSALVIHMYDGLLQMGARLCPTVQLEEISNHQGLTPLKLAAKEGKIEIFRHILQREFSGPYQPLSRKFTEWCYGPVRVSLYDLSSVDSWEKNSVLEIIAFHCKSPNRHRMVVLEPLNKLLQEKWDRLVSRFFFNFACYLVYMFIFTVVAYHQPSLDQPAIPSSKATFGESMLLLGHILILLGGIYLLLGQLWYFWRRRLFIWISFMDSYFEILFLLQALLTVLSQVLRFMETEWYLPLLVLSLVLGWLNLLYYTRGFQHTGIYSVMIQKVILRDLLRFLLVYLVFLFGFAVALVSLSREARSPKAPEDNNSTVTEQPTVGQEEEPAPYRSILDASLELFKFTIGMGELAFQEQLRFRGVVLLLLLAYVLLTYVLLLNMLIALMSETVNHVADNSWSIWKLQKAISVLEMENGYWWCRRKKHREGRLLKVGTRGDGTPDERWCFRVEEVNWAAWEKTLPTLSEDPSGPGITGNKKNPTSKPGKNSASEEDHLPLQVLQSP

canine TRPV2 (cTRPV2) = test: Calcium influx functional assay (FLIPR) in HEK293 cells transiently transfected with cTRPV2; type: cell-based; details: recombinant cTRPV2-expressing host cells
Experimental: The expression construct, cTRPV2/pcDNA3.1 was then transfected into human embryonic kidney cells (HEK293, ATCC CRL-1573) with FuGene6 transfection reagent (Roche, Indianapolis, Ind.), according to the vendor's protocol. TRPV2-expressing HEK293 cells were cultured in DMEM supplemented with 10% fetal bovine serum, 100 units/ml penicillin and 100 μg/ml streptomycin at 37° C. with 5% CO2, and were analyzed using a calcium influx assay 48-72 hr. post-transfection.
Transiently transfected cells were seeded in 384-well plates at a density of 1×10^4 cells/well and incubated overnight at 37° C. The following day, the cells were loaded with buffer and calcium dye, as recommended by the vendor (Molecular Devices, Sunnyvale, Calif.), in a final volume of 40 μl and incubated for 30 minutes at room temperature. The fluorescence intensity was measured by FLIPR before, during and after the addition of Δ^9-THC, which was added to the cells at a final concentration of 100 μM.

SMILES: CCCCCc1cc(O)c2c(c1)OC(C)(C)[C@@H]1CCC(C)=C[C@@H]21 [Δ^9-THC, Δ^9-tetrahydrocannabinol]
- activation of human TRPV2 (selective agonist) (human TRPV2): activate
- activation of mouse TRPV2 (selective agonist) (mouse TRPV2): activate
- activation of rat TRPV2 (selective agonist) (rat TRPV2): activate
- response of the recombinant TRPV2 cell system to agonist (canine TRPV2 (cTRPV2)): responded to Δ^9-THC in a dose-dependent manner
